Reference: patent US20040224958A1, “Pyridopyrimidinone derivatives for treatment of neurodegenerative disease” (priority 2000, published 2004)

Columns and labels:
[1] = target: cdc2/cyclinB (Homo sapiens, UniProt P06493); test: Cyclin-Dependent Kinase Assay cdc2/cyclinB
[2] = target: cdk2/cyclinE (Homo sapiens, UniProt P24941); test: Cyclin-Dependent Kinase Assay cdk2/cyclinE; conditions: cdk2/E IC50
[3] = target: cdk4/D (Homo sapiens, UniProt P11802); test: Cyclin-Dependent Kinase 4 (cdk4) Assay; assay type: biochemical; conditions: read-out: cdk4/D IC50
Chain of cdk4/D (P11802 whole entry): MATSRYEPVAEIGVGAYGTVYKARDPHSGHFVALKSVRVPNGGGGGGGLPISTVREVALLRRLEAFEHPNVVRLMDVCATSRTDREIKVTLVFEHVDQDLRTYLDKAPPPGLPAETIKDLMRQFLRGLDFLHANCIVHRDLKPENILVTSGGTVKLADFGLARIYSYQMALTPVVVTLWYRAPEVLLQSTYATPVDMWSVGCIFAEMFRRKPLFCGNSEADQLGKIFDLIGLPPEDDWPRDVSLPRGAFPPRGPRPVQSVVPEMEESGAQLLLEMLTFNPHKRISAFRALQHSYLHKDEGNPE
Chain of cdk4/D (P24385 whole entry, further chain): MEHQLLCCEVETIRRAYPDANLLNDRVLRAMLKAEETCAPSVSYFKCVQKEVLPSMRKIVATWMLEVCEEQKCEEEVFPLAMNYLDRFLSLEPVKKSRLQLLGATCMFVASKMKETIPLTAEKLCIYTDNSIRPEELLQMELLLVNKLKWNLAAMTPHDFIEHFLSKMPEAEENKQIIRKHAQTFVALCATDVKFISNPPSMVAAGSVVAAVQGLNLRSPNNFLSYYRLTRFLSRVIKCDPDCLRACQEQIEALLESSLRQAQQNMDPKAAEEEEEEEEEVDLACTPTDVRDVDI
Procedure: A typical assay, for instance, measures inhibitory activity against the cyclin D dependent kinase 4 enzyme (cdk4/D). […] The cdk4 assay was carried out as follows.
Cyclin-Dependent Kinase 4 (cdk4) Assay
All components except the ATP were added to the wells, and the plate was placed on a plate mixer for 2 minutes. The reaction was started by adding [^32P]ATP and the plate was incubated at 25° C. for 15 minutes. The reaction was terminated by addition of 0.1 mL of 20% trichloroacetic acid (TCA). The plate was kept at 4° C. for at least 1 hour to allow the substrate to precipitate. The wells were then washed five times with 0.2 mL of 10% TCA and ^32P incorporation was determined with a beta plate counter (Wallac Inc., Gaithersburg, Md.).

[4] = target: Cdk5/p25 (Homo sapiens, UniProt Q00535); test: Cyclin-Dependent Kinase 5 High Throughput Screening (cdk5-HTS) Assay; assay type: biochemical; conditions: high throughput screen
Procedure: Cyclin-Dependent Kinase 5 High Throughput Screening (cdk5-HTS) Assay
Enzyme assays for IC50 determinations were performed in 96-Pierce Reacti-Bind™ White Opaque Glutatione Coated Plates (Cat. No. 15240B).
The total volume was 0.100 mL containing a final concentration of 50 mM TRIS (tris[hydroxymethyl]aminomethane) at pH 7.4, 50 mM NaCl, 10 mM MgCl2, 5 mM dithiothreitol, 20 μM ATP containing 16 μCi/mL of Redivue[y33P]ATP (Amersham Pharmacia Biotech Cat. No. AH9968), 1.0 μg/mL Cdk5/p25, 20 μg/mL GST-RbCOOH, and appropriate dilutions of a compound of the present invention. The reaction was started by adding[^33P]ATP, and the plate was shaken for 30 seconds, then incubated at room temperature for 30 minutes. The reaction was terminated by addition of 0.05 mL of 120 mM EDTA. The plate was kept at room temperature for 45 minutes to allow substrate to bind to the walls of the plate. The wells were then washed three times with 0.2 mL of 1×PBS. Once thoroughly dry, 0.140 mL of MicroScint™2O (Packard Bioscience Cat. No. 87-9081) cocktail was added to all wells. The incorporation of ^33P was determined with a beta plate counter (Packard Topcount).

[5] = target: cdk2/cyclinA (Homo sapiens, UniProt P24941); test: Cyclin-Dependent Kinase Assay cdk2/cyclinA; conditions: cdk2/A IC50

Chain of cdc2/cyclinB (P06493 whole entry): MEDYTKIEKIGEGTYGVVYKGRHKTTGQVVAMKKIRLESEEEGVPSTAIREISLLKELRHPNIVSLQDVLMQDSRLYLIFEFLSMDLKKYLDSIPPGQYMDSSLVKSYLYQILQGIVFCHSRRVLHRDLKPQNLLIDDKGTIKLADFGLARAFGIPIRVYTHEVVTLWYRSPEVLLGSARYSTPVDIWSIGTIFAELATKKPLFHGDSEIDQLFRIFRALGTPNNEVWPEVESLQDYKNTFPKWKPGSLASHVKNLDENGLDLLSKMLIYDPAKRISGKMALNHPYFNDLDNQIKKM
Chain of cdc2/cyclinB (P14635 whole entry, further chain): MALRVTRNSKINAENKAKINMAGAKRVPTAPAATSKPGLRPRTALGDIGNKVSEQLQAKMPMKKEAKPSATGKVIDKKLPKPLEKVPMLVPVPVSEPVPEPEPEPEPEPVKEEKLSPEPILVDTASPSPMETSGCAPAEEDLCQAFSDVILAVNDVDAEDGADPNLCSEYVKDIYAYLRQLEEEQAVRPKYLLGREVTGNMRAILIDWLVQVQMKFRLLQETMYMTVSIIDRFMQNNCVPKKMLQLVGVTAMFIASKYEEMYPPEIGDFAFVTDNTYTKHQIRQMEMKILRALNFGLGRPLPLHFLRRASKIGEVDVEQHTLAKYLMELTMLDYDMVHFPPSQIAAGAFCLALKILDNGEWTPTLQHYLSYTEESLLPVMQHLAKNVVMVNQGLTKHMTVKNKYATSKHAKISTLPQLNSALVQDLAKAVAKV

| Structure (SMILES) | IC50 [1] | IC50 [2] | IC50 [3] | IC50 [4] | IC50 [5] |
| --- | --- | --- | --- | --- | --- |
| CC(C)n1c(=O)ccc2cnc(Nc3cc(C(F)(F)F)ccc3F)nc21 [Example 428, 2-(2-Fluoro-5-trifluoromethyl-phenylamino)-8-isopropyl-8H-pyrido[2,3-d]pyrimidin-7-one] | 2600 nM | 2400 nM | 2400 nM | 890 nM |  |
| CCn1c(=O)ccc2cnc(Nc3ccc(C#N)c(NC(C)=O)c3)nc21 [Example 299, N-[2-Cyano-5-(8-ethyl-7-oxo-7,8-dihydro-pyrido[2,3-d]pyrimidin-2-ylamino)-phenyl]-acetamide] | 2900 nM | 2700 nM | 1500 nM | 1000 nM |  |
| CCCCn1c(=O)ccc2cnc(Nc3cc(Cl)cc(Cl)c3)nc21 [Example 391, 8-Butyl-2-(3,5-dichloro-phenylamino)-8H-pyrido[2,3-d]pyrimidin-7-one] | 165 nM | 65 nM | 515 nM | 58 nM |  |
| CC(C)n1c(=O)ccc2cnc(Nc3cc([N+](=O)[O-])ccc3F)nc21 [Example 420, 2-(2-Fluoro-5-nitro-phenylamino)-8-isopropyl-8H-pyrido[2,3-d]pyrimidin-7-one] | 1400 nM | 1000 nM | 1000 nM | 660 nM |  |
| O=c1ccc2cnc(Nc3ccc(C(F)(F)F)cc3)nc2n1CC1CC1 [Example 590, 8-Cyclopropylmethyl-2-(4-trifluoromethyl-phenylamino)-8H-pyrido[2,3-d]pyrimidin-7-one] | 650 nM |  | 460 nM | 160 nM | 320 nM |
| O=c1ccc2cnc(Nc3ccc(OC(F)(F)F)cc3)nc2n1CC1CC1 [Example 591, 8-Cyclopropylmethyl-2-(4-trifluoromethoxy-phenylamino)-8H-pyrido[2,3-d]pyrimidin-7-one] | 3900 nM | 1800 nM | 210 nM | 140 nM |  |
| CCCn1c(=O)ccc2cnc(Nc3cc(OC)cc(C(F)(F)F)c3)nc21 [Example 342, 2-(3-Methoxy-5-trifluoromethyl-phenylamino)-8-propyl-8H-pyrido[2,3-d]pyrimidin-7-one] |  | 370 nM | 2200 nM | 1400 nM | 1800 nM |
| CCn1c(=O)ccc2cnc(Nc3cc(OC)c(OC)c(OC)c3)nc21 [Example 292, 8-Ethyl-2-(3,4,5-trimethoxy-phenylamino)-8H-pyrido[2,3-d]pyrimidin-7-one] | 860 nM | 1200 nM |  | 610 nM |  |
| CCCn1c(=O)ccc2cnc(Nc3cc(C(F)(F)F)cc(C(F)(F)F)c3)nc21 [Example 315, 2-(3,5-Bis-trifluoromethyl-phenylamino)-8-propyl-8H-pyrido[2,3-d]pyrimidin-7-one] | 2190 nM | 2580 nM |  | 2440 nM |  |
| CCC(CC)n1c(=O)ccc2cnc(Nc3cc(F)c(NC(C)=O)c(Cl)c3)nc21 [Example 514, N-{2-Chloro4-[8-(1-ethyl-propyl)-7-oxo-7,8-dihydro-pyrido[2,3-d]pyrimidin-2-ylamino]-6-fluoro-phenyl}-acetamide] | 2000 nM | 3100 nM | 250 nM | 1100 nM |  |
| Nc1c(Cl)cc(Nc2ncc3ccc(=O)n(C4CCCC4)c3n2)cc1Cl [Example 557, 2-(4-Amino-3,5-dichloro-phenylamino)-8-cyclopentyl-8H-pyrido[2,3-d]pyrimidin-7-one] | 73 nM |  | 120 nM | 96 nM | 130 nM |
| O=c1ccc2cnc(Nc3cccc([N+](=O)[O-])c3)nc2n1CC(F)(F)F [Example 599, 2-(3-Nitro-phenylamino)-8-(2,2,2-trifluoro-ethyl)-8H-pyrido[2,3-d]pyrimidin-7-one] | 2350 nM | 1700 nM |  | 785 nM |  |
| CCCn1c(=O)ccc2cnc(Nc3cc(OC)c(OC)c(OC)c3)nc21 [Example 334, 8-Propyl-2-(3,4,5-trimethoxy-phenylamino)-8H-pyrido[2,3-d]pyrimidin-7-one] | 1300 nM | 910 nM |  | 300 nM |  |

The remaining molecules from weak to strong by IC50 [4], led by results:

| IC50 [1] | IC50 [2] | IC50 [3] | IC50 [4] | IC50 [5] | Structure (SMILES) |
| --- | --- | --- | --- | --- | --- |
| 2400 nM | 1030 nM |  | 2270 nM |  | CCCCn1c(=O)ccc2cnc(Nc3cc(C(F)(F)F)ccc3F)nc21 [Example 372, 8-Butyl-2-(2-fluoro-5-trifluoromethyl-phenylamino)-8H-pyrido[2,3-d]pyrimidin-7-one] |
| 1760 nM | 1460 nM | 3000 nM | 1160 nM |  | CCCn1c(=O)ccc2cnc(Nc3cc(C(F)(F)F)ccc3F)nc21 [Example 311, 2-(2-Fluoro-5-trifluoromethyl-phenylamino)-8-propyl-8H-pyrido[2,3-d]pyrimidin-7-one] |
|  | 340 nM | 1800 nM | 970 nM | 730 nM | CC(C)n1c(=O)ccc2cnc(Nc3ccc(O)c(CN4CCOCC4)c3)nc21 [Example 436, 2-(4-Hydroxy-3-morpholin-4-ylmethyl-phenylamino)-8-isopropyl-8H-pyrido[2,3-d]pyrimidin-7-one] |
| 3700 nM | 2300 nM | 3300 nM | 870 nM |  | CCn1c(=O)ccc2cnc(Nc3cc([N+](=O)[O-])ccc3F)nc21 [Example 297, 8-Ethyl-2-(2-fluoro-5-nitro-phenylamino)-8H-pyrido[2,3-d]pyrimidin-7-one] |
| 1860 nM | 1300 nM |  | 720 nM |  | O=c1ccc2cnc(Nc3ccc(O)cc3F)nc2n1CC(F)(F)F [Example 596, 2-(2-Fluoro-4-hydroxy-phenylamino)-8-(2,2,2-trifluoro-ethyl)-8H-pyrido[2,3-d]pyrimidin-7-one] |
| 1700 nM | 2900 nM |  | 595 nM |  | COc1ccc(Nc2ncc3ccc(=O)n(C)c3n2)cc1OC [Example 617, 2-(3,4-Dimethoxy-phenylamino)-8-methyl-8H-pyrido[2,3-d]pyrimidin-7-one] |
| 1900 nM | 1400 nM | 2000 nM | 430 nM |  | CCn1c(=O)ccc2cnc(Nc3ccc(C#N)c(C#N)c3)nc21 [Example 298, 4-(8-Ethyl-7-oxo-7,8-dihydro-pyrido[2,3-d]pyrimidin-2-ylamino)-phthalonitrile] |
| 520 nM | 380 nM | 210 nM | 370 nM |  | CCC(CC)n1c(=O)ccc2cnc(Nc3cc([N+](=O)[O-])ccc3F)nc21 [Example 504, 8-(1-Ethyl-propyl)-2-(2-fluoro-5-nitro-phenylamino)-8H-pyrido[2,3-d]pyrimidin-7-one] |
| 1300 nM | 1400 nM | 1500 nM | 310 nM |  | CCC(C)n1c(=O)ccc2cnc(Nc3cc(C(F)(F)F)ccc3F)nc21 (stereo not drawn) [Example 466, 8-sec-Butyl-2-(2-fluoro-5-trifluoromethyl-phenylamino)-8H-pyrido[2,3-d]pyrimidin-7-one] |
| 3100 nM | 1200 nM |  | 230 nM |  | CCCn1c(=O)ccc2cnc(Nc3ccc(Cl)c(Cl)c3)nc21 [Example 350, 2-(3,4-Dichloro-phenylamino)-8-propyl-8H-pyrido[2,3-d]pyrimidin-7-one] |
| 270 nM |  |  | 190 nM | 4000 nM | CCCn1c(=O)ccc2cnc(Nc3ccc(OC(F)(F)F)cc3)nc21 [Example 362, 8-Propyl-2-(4-trifluoromethoxy-phenylamino)-8H-pyrido[2,3-d]pyrimidin-7-one] |
| 190 nM |  | 340 nM | 45 nM | 340 nM | O=c1ccc2cnc(Nc3ccc(F)c(C(F)(F)F)c3)nc2n1C1CCCC1 [Example 534, 8-Cyclopentyl-2-(4-fluoro-3-trifluoromethyl-phenylamino)-8H-pyrido[2,3-d]pyrimidin-7-one] |
| 140 nM | 120 nM | 260 nM | 33 nM |  | CC(C)n1c(=O)ccc2cnc(Nc3ccc(F)c(Cl)c3)nc21 [Example 419, 2-(3-Chloro-4-fluoro-phenylamino)-8-isopropyl-8H-pyrido[2,3-d]pyrimidin-7-one] |
| 79 nM | 36 nM | 170 nM | 13 nM |  | CCC(CC)n1c(=O)ccc2cnc(Nc3ccc(F)c(C)c3)nc21 [Example 503, 8-(1-Ethyl-propyl)-2-(4-fluoro-3-methyl-phenylamino)-8H-pyrido[2,3-d]pyrimidin-7-one] |
